Reference: publication PMC10718076, “1,2-Disubstituted bicyclo[2.1.1]hexanes as saturated bioisosteres of ortho-substituted benzene” (Chemical Science, 2023)
Where two headings read alike, the source gives them in different places.

Legend:
[1] = both, human, pH 7.4
in vitro = settings: both, human

## O=C(O)Cc1ccccc1Nc1c(Cl)cccc1Cl [Diclofenac]
[1]; microsomes, 25 min, 2 µM
  % Remaining, Mean of 2: 9%
[1]; s9, 25 min, 2 μM
  % Remaining, Mean of 2: 9%
In vitro; microsomes, pH 7.4
  microsomal CLint at 2 µM: 173 µL/min/mg
  microsomal CLint at 2 μM: 272 µL/min/mg
In vitro; pH 7.4, kel
  k el at 2 µM: 0.0012 s⁻¹
  k el at 2 μM: 0.00123 s⁻¹
In vitro; s9, pH 7.4
  microsomal CLint at 2 μM: 178 µL/min/mg
